The values that follow come from PMC11181322, “Copper(II) Complexes with Isomeric Morpholine-Substituted 2-Formylpyridine Thiosemicarbazone Hybrids as Potential Anticancer Drugs Inhibiting Both Ribonucleotide Reductase and Tubulin Polymerization: The Morpholine Position Matters” (Journal of Medicinal Chemistry, 2024).

Bounds are passed on as bounds.

The nature of series [1]: pKa of the copper(II) complexes (UV–vis / pH-potentiometric titrations). The settings on record: 30% (v/v) DMSO/H2O, 25 °C.
Method: The solution speciation of copper(II) complexes with H2L^3–H2L^6 was studied primarily by UV–vis spectrophotometric titrations in a 30% (v/v) DMSO/H2O solvent mixture as a function of pH.
An Agilent Carry 8454 diode array spectrophotometer was used to record the UV–vis spectra in the interval 200–800 nm. The path length was 1 cm. Proton dissociation constants (pKa) of the proligands and complexes were calculated by the computer program PSEQUAD.[94] Spectrophotometric titrations were performed on samples containing the proligands at a 50–100 μM concentration with a KOH solution in the presence of 0.1 M KCl at 25.0 ± 0.1 °C in the pH range from 2 to 11.5 in a 30% (v/v) DMSO/H2O solvent mixture, and the metal-to-ligand ratios were 1:0, 1:1, and 1:2. An Orion 710A pH meter equipped with a Metrohm combined electrode (type 6.0234.100) and a Metrohm 665 Dosimat buret were used for the titrations. […] Ar was also passed over the solutions during the titrations. Measurements were carried out in the range ca. 1.0–2.0 by preparing individual samples, in which KCl was partially or completely replaced by HCl, and pH values were calculated from the strong acid content. The conditional stability constants (K′) of the copper(II) complexes were calculated at pH 5.90 based on the spectral changes via the displacement reaction with EDTA in the presence 50 mM MES and 0.1 M KCl in water or in 30% (v/v) DMSO/H2O. In the competition experiments, the samples contained 25 μM copper(II) and 25 μM proligand, and the concentration of EDTA was varied from 0 to 400 μM. The conditional stability constants of the metal complexes (K′) and the individual spectra of the species were calculated by the computer program PSEQUAD.[94]
For series [2], the system named is MES-SA/Dx5 cells. The series is described as follows: Cell cycle analysis, MES-SA/Dx5. In kind it is cell-based, human. The procedure: (§1) Cell cycle arrest in S-phase has been observed for Triapine analogues at concentrations ranging from 0.25 to 5.0 μM,[82],[83] in line with a mechanism of action relying on RNR inhibition.
(§2) Figure S18. Cell cycle arrest for (a) proligand H2L4 and (b) complex 4 in MES-SA cells, as
(§3) well as for (c) proligand H2L4 and (d) complex 4 in the MES-SA/Dx5 cancer cell line.
(§4) Table S4. Cell cycle arrest for proligand H2L4 and complex 4 in the MES-SA and MES-
(§5) SA/Dx5 cancer cell lines.
(§6) H2L4 (MES-SA) H2L4 (MES-SA/Dx5) complex 4 (MES-SA) complex 4 (MES-SA/Dx5)
(§7) Table S5. Cell cycle arrest for proligand H2L6 and complex 6 in the MES-SA and MES-
(§8) H2L6 (MES-SA) H2L6 (MES-SA/Dx5) complex 6 (MES-SA) complex 6 (MES-SA/Dx5)
(§9) (1 picture or pasted object on this page, not shown here)

Series [3] concerns MES-SA/Dx5 cells. The series is described as follows: Fluorescent protein-based cytotoxicity assay, MES-SA/Dx5. Particulars: for IC50: 120 h, ± SD, n = 3; for SR, selectivity ratio IC50 (MES-SA)/IC50 (MES-SA/Dx5): in the absence of TQ. Type of series: cell-based, human. An excerpt:
The cytotoxic activity of proligands H2L^3–H2L^6 and their copper(II) complexes 3–6 was investigated in the MES-SA (human uterine sarcoma) and in its MDR counterpart (MES-SA/Dx5) cell lines by a fluorescent protein-based assay.[73]
The human uterine sarcoma cell lines MES-SA and the doxorubicin selected MES-SA-Dx5 were obtained from ATCC (MES-SA: No. CRL-1976, MES-SA/Dx5: No. CRL-1977) and were used for the intracellular ROS generation studies. For cytotoxicity, we used the fluorescent cell lines MES-SA mCherry and MES-SA/Dx5 eGFP, which were created by lentiviral transductions of the respective genes.[73] The phenotype of the resistant cells was maintained by 500 nM doxorubicin treatment a week before use and was verified using cytotoxicity assays. Cells were cultivated at 37 °C, 5% CO2 in Dulbecco’s modified Eagle's Medium (DMEM, Sigma-Aldrich), supplemented with 10% fetal bovine serum, 5 mM glutamine, and 50 unit/mL penicillin and streptomycin (Thermo Fisher).
MES-SA mCherry and MES-SA/Dx5 eGFP cell suspensions were seeded after trypsinization at 2500 cells/20 μL density on 384-well plates, containing 20 μL of completed medium. The next day, serial dilution of the compounds was prepared and added in an additional 20 μL, with or without 0.4 μM Tariquidar. Liquid handling steps were performed by a Hamilton StarLet robot. […] The mean and standard deviation of the pIC50 values were calculated and converted to IC50 values.

Series [4] can be described thus: Conditional stability constants of the copper(II) complexes by EDTA displacement (UV–vis). Type of series: physicochemical. Particulars: for logK′5.9 (DMSO/H2O) / logK′5.9 (H2O): EDTA displacement, UV–vis, 25 °C; for logK′5.9 (DMSO/H2O): pH 5.9, 30% (v/v) DMSO/H2O; for logK′5.9 (H2O): pH 5.9, water, I = 0.1 M (KCl); for pCu5.9 (=–log[Cu(II)]): calcd. at pH 5.9, cL = cCu(II) = 1 μM. The procedure:
The stability constants of 3–6 were determined by EDTA competition experiments monitored by UV–vis spectrophotometry at pH 5.9, where the [Cu(HL)]^+ species is dominant. Since the displacement of the TSC ligand by EDTA is relatively slow, a 2 h reaction time was used to reach equilibrium. Upon increasing the concentration of EDTA, the absorbance of the characteristic S → Cu charge transfer band at 400–416 nm decreased (see, for example, Figure 3 for the copper(II)–H2L^4 (1:1) system).[68] The experiments were performed in both aqueous solution and the 30% (v/v) DMSO/H2O solvent mixture. The determined conditional (apparent) formation constants (log K′5.9) are rather similar (see Table 2) in both media. However, the values are lower in the DMSO/H2O solvent mixture than in aqueous solution, presumably due to coordination of DMSO to copper(II). An analogous observation was reported for the copper(II) complex of Triapine.[67] […] To compare the copper(II) binding ability of the studied TSCs H2L^3–H2L^6 at pH 5.9 (at which the conditional constants were determined), pCu (−log [Cu(II)]) values were also computed using the experimentally determined equilibrium constants (Table 2). The higher pCu value indicates a stronger metal ion binding ability of the ligand under given circumstances. The ligands form complexes with fairly similar stability, in agreement with the conditional stability constants. […] A similar behavior was reported for aqueous solutions of the N-terminally dimethylated derivative of the 2-pyridinecarboxaldehyde TSC (PTSC)[69] and for the corresponding morpholine-hybrid Morph-dm-FTSC.[52] In particular, the calculated pCu values were also very close, 13.17 for PTSC vs 13.08 for Morph-dm-FTSC calculated at pH 7.4.
The path length was 1 cm.

In series [5] the test system is MES-SA cells. Nature of the series: Cell cycle analysis, MES-SA. In kind it is cell-based, human. Particulars: for G0/G1 / G2/M / S: MES-SA. The procedure:
as §1, §2, §3, §4, §5, §6, §7, §8, §9

For series [6], the system named is MES-SA cells. Nature of the series: Intracellular ROS generation, DCF-DA assay, MES-SA. Type of series: cell-based, human. The settings on record: 25 μM, 4 h treatment. The procedure: ROS accumulation was evaluated in both the MES-SA and MES-SA/Dx5 cell lines by using 2′,7′-dichlorodihydrofluorescein diacetate (H2DCF-DA) as a probe. This compound enters the cells by passive diffusion, and after oxidation, it is converted to the highly fluorescent 2′,7′-dichlorofluorescein (DCF), enabling the estimation of intracellular ROS levels. ROS generation was measured after a 4 h treatment with 25 μM H2L^6 or 6; tert-butylhydroperoxide (TBHP, 25 μM) was used as a positive control.
Figure 6 Intracellular ROS generation measured by the DCF-DA assay in MES-SA (filled bars) and MES-SA/Dx5 (lattice bars) cells, after a 4 h treatment with the indicated compounds at 25 μM: H2L^6 (gray), complex 6 (yellow), Triapine (green), and TBHP (brown). Values indicate fold change relative to the fluorescence of the cells treated with fluorescent probe alone (orange bars), following normalization to the initial fluorescence at the beginning of the incubation. Paired t test to the medium control was calculated; […]; **P < 0.01. Values were calculated from at least three independent experiments.
The human uterine sarcoma cell lines MES-SA and the doxorubicin selected MES-SA-Dx5 were obtained from ATCC (MES-SA: No. CRL-1976, MES-SA/Dx5: No. CRL-1977) and were used for the intracellular ROS generation studies. […]

Where [7] appears, read: cell line not given (figures: MES-SA and MES-SA/Dx5).

As for `Cc1cc(NC(=NN=Cc2cc(CN3CCOCC3)ccn2)[S][Cu][Cl])cc(C)c1O` [complex 4, [Cu(HL^4)Cl]·1.5H2O], the figures for the “pKa[Cu(H2L)]2+” value in series [1] (UV–vis spectrophotometry) and in series [1] (pH potentiometry) were 4.48 ± 0.01 and 4.60 ± 0.02, respectively. Also, the G0/G1 with MES-SA/Dx5 cells [2] (MES-SA/Dx5, 2 µM) is given as 48%; in the series on MES-SA/Dx5 cells [2] (MES-SA/Dx5, 4 µM) it was 43%; with MES-SA/Dx5 cells [2] (MES-SA/Dx5, 8 µM) it was 47%; with MES-SA cells [5] (2 µM) it was 63%; in the series with MES-SA cells [5] (4 µM), 56%; with MES-SA cells [5] (8 µM), 50%. The G2/M in the series with MES-SA/Dx5 cells [2] (MES-SA/Dx5, 2 µM) amounted to 32%; in the series with MES-SA/Dx5 cells [2] (MES-SA/Dx5, 4 µM), 36%; in the series with MES-SA/Dx5 cells [2] (MES-SA/Dx5, 8 µM), 36%; with MES-SA cells [5] (2 µM) it was 21%; in the series with MES-SA cells [5] (4 µM), 25%; in the series with MES-SA cells [5] (8 µM) it was 30%. Besides, the S in the series with MES-SA/Dx5 cells [2] (MES-SA/Dx5, 2 µM) came out at 20%; in the series with MES-SA/Dx5 cells [2] (MES-SA/Dx5, 4 µM) it was 21%; in the series on MES-SA/Dx5 cells [2] (MES-SA/Dx5, 8 µM) it was 16%; in the series on MES-SA cells [5] (2 µM), 16%; in the series on MES-SA cells [5] (4 µM), 19%; in the series with MES-SA cells [5] (8 µM), 20%. Also, the half-maximal inhibitory concentration (IC50) in the series with MES-SA/Dx5 cells [3] is 5.8 ± 0.1 µM. In the series with MES-SA/Dx5 cells [3], the “SR, selectivity ratio IC50 (MES-SA)/IC50 (MES-SA/Dx5)” value (“SR, selectivity ratio IC50” for short) is recorded as 3.33. The “logK′5.9 (DMSO/H2O)” value in series [4] was found to be 10.07 ± 0.01. For the same molecule, the “logK′5.9 (H2O)” value in series [4] was 13.35 ± 0.02. Also, the “pCu5.9 (=–log[Cu(II)])” value in series [4] was 8.06. In addition, the cell cycle effect result in the series on MES-SA cells [5] (setting [7]) is reported as “gradually increased the G2/M ratio in a concentration-dependent manner”.

In the case of `Cc1cc(NC(=NN=Cc2ccc(CN3CCOCC3)cn2)[S][Cu][Cl])cc(C)c1O` [complex 5, [Cu(HL^5)Cl]·2.5H2O], in series [1] (UV–vis spectrophotometry), the “pKa[Cu(H2L)]2+” value was determined as 4.75 ± 0.01. Besides, in series [1] (pH potentiometry), the “pKa[Cu(H2L)]2+” value is recorded as 4.95 ± 0.04. Also, in the series on MES-SA/Dx5 cells [3], the IC50 was 8.1 ± 2 µM and the “SR, selectivity ratio IC50” value was found to be 3.81. Moreover, in series [4], the “logK′5.9 (DMSO/H2O)” value turned out to be 9.99 ± 0.01, the “logK′5.9 (H2O)” value amounted to 13.39 ± 0.01 and the “pCu5.9 (=–log[Cu(II)])” value was 8.02.

In the series with MES-SA/Dx5 cells [2] (MES-SA/Dx5, 2 µM), `Cc1cc(NC(=NN=Cc2cccc(CN3CCOCC3)n2)[S][Cu][Cl])cc(C)c1O` [complex 6, [Cu(HL^6)Cl]·H2O] came in with a G0/G1 of 53%, a G2/M of 35% and an S of 12%. In the series with MES-SA/Dx5 cells [2] (MES-SA/Dx5, 4 µM), this molecule showed a G0/G1 of 39%, a G2/M of 48% and an S of 12%. For the same molecule, in the series on MES-SA/Dx5 cells [2] (MES-SA/Dx5, 8 µM), the G0/G1 worked out at 21%, the G2/M came out at 68% and the S is recorded as 11%. In addition, in the series with MES-SA/Dx5 cells [3], the midpoint of inhibition, the IC50, lay at 1.4 ± 0.2 µM and the “SR, selectivity ratio IC50” value worked out at 0.21. Besides, the “Intracellular ROS generation” value with MES-SA cells [6] is on record as “significant ROS induction”. For the same molecule, in series [4], the “logK′5.9 (DMSO/H2O)” value is 10.09 ± 0.04, the “logK′5.9 (H2O)” value was found to be 13.73 ± 0.02 and the “pCu5.9 (=–log[Cu(II)])” value is 8.07. In the series with MES-SA cells [5] (2 µM), this molecule returned a G0/G1 of 74%, a G2/M of 17% and an S of 9%. In addition, in the series on MES-SA cells [5] (4 µM), the G0/G1 is given as 35%, the G2/M stood at 55% and the S is recorded as 11%. Further, in the series with MES-SA cells [5] (8 µM), the G0/G1 is 24%, the G2/M is 68% and the S is on record as 8%. The “concentrations inducing G2/M-phase arrest” value in the series with MES-SA cells [5] (setting [7]) was at least 4 µM.

As a reminder, the IC50 is the concentration needed to halve the response being measured. A lower IC50 goes with inhibition by little substance.
